EC50 data for 23 compounds are collected here from patent US20250230172A1 (Vanqua Bio, Inc., priority 2021, published 2025).

The test deals with T1, GCase (Homo sapiens, UniProt P04062).
T1 construct: endogenous in cells; host or cells: HeLa cells
T1 sequence (P04062 40-536): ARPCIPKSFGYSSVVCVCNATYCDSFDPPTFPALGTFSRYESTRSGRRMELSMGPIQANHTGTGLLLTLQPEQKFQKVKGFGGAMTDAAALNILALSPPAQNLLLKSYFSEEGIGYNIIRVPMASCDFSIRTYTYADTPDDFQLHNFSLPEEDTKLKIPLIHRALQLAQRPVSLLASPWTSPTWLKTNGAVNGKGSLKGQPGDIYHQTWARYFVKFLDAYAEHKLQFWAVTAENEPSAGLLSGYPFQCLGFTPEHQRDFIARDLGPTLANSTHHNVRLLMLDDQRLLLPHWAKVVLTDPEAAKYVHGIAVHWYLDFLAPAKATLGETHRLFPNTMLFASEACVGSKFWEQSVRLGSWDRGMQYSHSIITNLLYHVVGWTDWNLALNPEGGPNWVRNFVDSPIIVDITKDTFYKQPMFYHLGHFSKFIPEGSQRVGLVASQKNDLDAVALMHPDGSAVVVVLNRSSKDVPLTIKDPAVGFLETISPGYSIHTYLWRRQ
As to the kind of experiment: live cell PFB assay in HELA cells for activation of GCase. The format is cell-based. As for the experimental part: Exemplary compounds were evaluated for activation of GCase in a live cell PFB assay in HELA cells (essentially as described in Ysselstein et al., “LRRK2 kinase activity regulates lysosomal glucocerebrosidase in neurons derived from Parkinson's disease patients” Nature Communications (2019) 10:5570). […] EC50 ranges: A: <10 μM; B: >10-50 μM; C: >50-100 μM; D: >100 μM.

On to `O=C1[C@@H]2CN(c3cc(C(F)(F)F)ccn3)C[C@@H]2CN1c1cnc2cnn(CC(F)F)c2n1` (racemic) [Compound 55, rac-(3aR,6aS)-2-[1-(2,2-difluoroethyl)-1H-pyrazolo[3,4-b]pyrazin-6-yl]-5-[4-(trifluoromethyl)pyridin-2-yl]-octahydropyrrolo[3,4-c]pyrrol-1-one], for which the EC50 (commonly the midpoint of the concentration-response curve) fell in the range of 10 to 50 µM.

For the compound `FC(F)Cn1ncc2ncc(N3CC[C@H]4[C@@H]3CCN4c3cc(C(F)(F)F)ccn3)nc21` (racemic) [Compound 56, rac-2-[(3aR,6aR)-4-[1-(2,2-difluoroethyl)-1H-pyrazolo[3,4-b]pyrazin-6-yl]-octahydropyrrolo[3,2-b]pyrrol-1-yl]-4-(trifluoromethyl)pyridine], the EC50 was below 10 µM.

`FC(F)Cn1ncc2ncc(N3CC[C@H]4[C@@H]3CCN4c3cccc(C(F)(F)F)n3)nc21` (racemic) [Compound 57, rac-2-[(3aR,6aR)-4-[1-(2,2-difluoroethyl)-1H-pyrazolo[3,4-b]pyrazin-6-yl]-octahydropyrrolo[3,2-b]pyrrol-1-yl]-6-(trifluoromethyl)pyridine] returned an EC50 of 10 to 50 µM.

The compound `FC(F)Cn1ncc2ncc(N3CC[C@H]4CN(c5cc(C(F)(F)F)ccn5)C[C@H]43)nc21` (racemic) [Compound 58, rac-2-[(3aR,6aR)-1-[1-(2,2-difluoroethyl)-1H-pyrazolo[3,4-b]pyrazin-6-yl]-octahydropyrrolo[3,4-b]pyrrol-5-yl]-4-(trifluoromethyl)pyridine] registered an EC50 of 10 to 50 µM.

Compound `FC(F)Cn1ncc2ncc(N3CC[C@H]4CN(c5cccc(C(F)(F)F)n5)C[C@H]43)nc21` (racemic) [Compound 59, rac-2-[(3aR,6aR)-1-[1-(2,2-difluoroethyl)-1H-pyrazolo[3,4-b]pyrazin-6-yl]-octahydropyrrolo[3,4-b]pyrrol-5-yl]-6-(trifluoromethyl)pyridine] registered an EC50 of 10 to 50 µM.

`FC(F)Cn1ncc2ncc(N3C[C@@H]4CCN(c5cc(C(F)(F)F)ccn5)[C@@H]4C3)nc21` (racemic) [Compound 60, rac-2-[(3aR,6aR)-5-[1-(2,2-difluoroethyl)-1H-pyrazolo[3,4-b]pyrazin-6-yl]-octahydropyrrolo[2,3-c]pyrrol-1-yl]-4-(trifluoromethyl)pyridine] showed an EC50 of 10 to 50 µM.

The compound `FC(F)Cn1ncc2ncc(N3C[C@@H]4CCN(c5cccc(C(F)(F)F)n5)[C@@H]4C3)nc21` (racemic) [Compound 61, rac-2-[(3aR,6aR)-5-[1-(2,2-difluoroethyl)-1H-pyrazolo[3,4-b]pyrazin-6-yl]-octahydropyrrolo[2,3-c]pyrrol-1-yl]-6-(trifluoromethyl)pyridine] returned an EC50 of 10 to 50 µM.

Take `O=C1[C@@H]2CN(c3cccc(C(F)(F)F)n3)C[C@@H]2CN1c1cnc2cnn(CC(F)F)c2n1` (racemic) [Compound 62, rac-(3aR,6aS)-2-[1-(2,2-difluoroethyl)-1H-pyrazolo[3,4-b]pyrazin-6-yl]-5-[6-(trifluoromethyl)pyridin-2-yl]-octahydropyrrolo[3,4-c]pyrrol-1-one]: the EC50 fell in the range of 10 to 50 µM.

`FC(F)Cn1ncc2ncc(N3CC[C@@H]4CN(c5ccc(C(F)(F)F)cn5)C[C@H]4C3)nc21` (single isomer, unassigned) [Compound 68]: the EC50 fell in the range of 10 to 50 µM.

With `FC(F)Cn1ncc2ncc(N[C@H]3CC[C@@H]4CN(c5cccc(C(F)(F)F)n5)C[C@@H]4C3)nc21` (single isomer, unassigned) [Compound 70], the half-maximal effective concentration (EC50) is below 10 µM.

The compound `FC(F)Cn1ncc2ncc(N[C@@H]3CC[C@@H]4CN(c5cccc(C(F)(F)F)n5)C[C@@H]4C3)nc21` (single isomer, unassigned) [Compound 71] had an EC50 of 10 to 50 µM.

`FC(F)Cn1ncc2ncc(N[C@H]3CC[C@@H]4CN(c5cc(C(F)(F)F)ccn5)C[C@@H]4C3)nc21` (single isomer, unassigned) [Compound 72] showed an EC50 below 10 µM.

Compound `FC(F)Cn1ncc2ncc(N[C@@H]3CC[C@@H]4CN(c5cc(C(F)(F)F)ccn5)C[C@@H]4C3)nc21` (single isomer, unassigned) [Compound 73] displayed an EC50 of 10 to 50 µM.

As to `FC(F)Cn1ncc2ncc(N[C@H]3CC[C@@H]4CN(c5cccnc5C(F)(F)F)C[C@@H]4C3)nc21` (single isomer, unassigned) [Compound 74], the 50% effective concentration (EC50) fell in the range of 10 to 50 µM.

In turn, `FC(F)Cn1ncc2ncc(N[C@@H]3CC[C@@H]4CN(c5cccnc5C(F)(F)F)C[C@@H]4C3)nc21` (single isomer, unassigned) [Compound 75] came in with an EC50 above 100 µM.

In the case of `FC(F)Cn1ncc2ncc(N3CCN4C[C@H](Oc5cccnc5C(F)(F)F)C[C@H]4C3)nc21` [Compound 26, 3-{[(7R,8aS)-2-[1-(2,2-difluoroethyl)-1H-pyrazolo[3,4-b]pyrazin-6-yl]-octahydropyrrolo[1,2-a]pyrazin-7-yl]oxy}-2-(trifluoromethyl)pyridine], the EC50 is 50 to 100 µM.

In the case of `Cn1c(-c2ccccc2)c(C(=O)N2CCN3C[C@H](Oc4cccnc4C(F)(F)F)C[C@H]3C2)c2nccnc21` [Compound 27, 3-{[(7R,8aS)-2-{5-methyl-6-phenyl-5H-pyrrolo[2,3-b]pyrazine-7-carbonyl}-octahydropyrrolo[1,2-a]pyrazin-7-yl]oxy}-2-(trifluoromethyl)pyridine], the EC50 lay in the range of 50 to 100 µM.

Compound `O=C(c1ccc2cc[nH]c2c1)N1CCN2C[C@H](Oc3cccnc3C(F)(F)F)C[C@H]2C1` [Compound 28, 6-[(7R,8aS)-7-{[2-(trifluoromethyl)pyridin-3-yl]oxy}-octahydropyrrolo[1,2-a]pyrazine-2-carbonyl]-1H-indole] returned an EC50 of 10 to 50 µM.

Regarding `FC(F)Cn1ncc2ncc(N3CC4CC(Oc5cccc(C(F)(F)F)n5)CC4C3)nc21` (centres unmarked) [Compound 29, 2-({2-[1-(2,2-difluoroethyl)-1H-pyrazolo[3,4-b]pyrazin-6-yl]-octahydrocyclopenta[c]pyrrol-5-yl}oxy)-6-(trifluoromethyl)pyridine], the EC50 is below 10 µM.

In turn, `FC(F)Cn1ncc2ncc(N3CC4CC(Oc5cc(C(F)(F)F)ccn5)CC4C3)nc21` (centres unmarked) [Compound 30, 2-({2-[1-(2,2-difluoroethyl)-1H-pyrazolo[3,4-b]pyrazin-6-yl]-octahydrocyclopenta[c]pyrrol-5-yl}oxy)-4-(trifluoromethyl)pyridine] showed an EC50 below 10 µM.

`FC(F)Cn1ncc2ncc(N3CC4CC(Oc5cccnc5C(F)(F)F)CC4C3)nc21` (centres unmarked) [Compound 31, 3-({2-[1-(2,2-difluoroethyl)-1H-pyrazolo[3,4-b]pyrazin-6-yl]-octahydrocyclopenta[c]pyrrol-5-yl}oxy)-2-(trifluoromethyl)pyridine] gave an EC50 above 100 µM.

In turn, `FC(F)Cn1ncc2ncc(N[C@@H]3C[C@@H]4CN(c5cccc(C(F)(F)F)n5)C[C@@H]4C3)nc21` [Compound 32, (3aR,5S,6aS)—N-[1-(2,2-difluoroethyl)-1H-pyrazolo[3,4-b]pyrazin-6-yl]-2-[6-(trifluoromethyl)pyridin-2-yl]-octahydrocyclopenta[c]pyrrol-5-amine] registered an EC50 below 10 µM.

`FC(F)Cn1ncc2ncc(N[C@@H]3C[C@@H]4CN(c5cc(C(F)(F)F)ccn5)C[C@@H]4C3)nc21` [Compound 33, (3aR,5S,6aS)—N-[1-(2,2-difluoroethyl)-1H-pyrazolo[3,4-b]pyrazin-6-yl]-2-[4-(trifluoromethyl)pyridin-2-yl]-octahydrocyclopenta[c]pyrrol-5-amine]: the EC50 is below 10 µM.
